{"source": "patent US20060003348A1", "about": "“Omi PDZ modulators” (GENENTECH. INC., priority 2004, published 2006)", "molecular_target": "T1, Omi PDZ (GST-Omi PDZ fusion protein) (Homo sapiens, UniProt O43464)", "T1 construct": "DNA fragment encoding hOmi PDZ domain was cloned into BamHI/XhoI sites of pGEX6P-3 plasmid, creating a GST-hOmiPDZ fusion protein; made in house; host or cells: E. coli BL21(DE3), plasmid pGEX6P-3", "T1 sequence (O43464 359-458)": "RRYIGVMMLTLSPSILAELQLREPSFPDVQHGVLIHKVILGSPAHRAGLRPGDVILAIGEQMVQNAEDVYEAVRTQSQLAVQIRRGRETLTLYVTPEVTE", "test": "Competition ELISA affinity assay: peptide blocks GST-Omi PDZ binding to immobilized biotinylated peptide", "details": "for fold lower affinity (IC50 increase) relative to SWTMFWV (hOmi_c1): compared with peptide SWTMFWV (hOmi_c1); for IC50 / IC50 (μM): competition ELISA", "experimental": "Affinity Assays—The binding affinities of peptides for Omi PDZ were determined as IC50 values using a previously described competition ELISA (18). […] Assay plates were prepared by immobilizing an amino-terminally biotinylated peptide (biotin-GWTMFWV) on maxisorp plates coated with NeuTravidin and blocked with BSA. A fixed concentration of GST-Omi PDZ fusion protein (20 nM) in PBS, 0.5% BSA, 0.1% Tween 20 (PBT buffer) was preincubated for 1 h with serial dilutions of peptide and then transferred to the assay plates. After 1 h incubation, the plates were washed with PBS, 0.05% Tween 20, incubated for 30 min with HRP/anti-GST antibody (1:10,000) in PBT buffer, washed again, and detected with 3,3′,5,5′-Tetramethyl-benzidine/H2O2 (TMB) peroxidase substrate.\nThe binding affinity of this ligand to Omi PDZ was measured with ELISA competition assay. […] PDZ-opt is an optimized peptide ligand of Omi PDZ derived from a chemically synthesized peptide library (11) with totally different sequence motif from that of the ligands derived from phage libraries. […] Peptides from libC and peptides Mxi2 and PDZ-opt were synthesized with acetylated N termini and free C termini, unless indicated otherwise. Peptides from libN were synthesized with free N termini and amidation at C termini.", "key": {"[1]": {"details": "20 nM GST-Omi PDZ, immobilized biotinylated high affinity peptide, mean"}, "[2]": {"details": "20 nM GST-Omi PDZ, immobilized biotinylated high affinity peptide, mean, read-out: IC50"}, "[3]": {"details": "IC50 (μM), 20 nM GST-Omi PDZ, immobilized biotinylated high affinity peptide, mean"}}, "note": "Where two headings read alike, the source gives them in different places. Where a SMILES comes first, the peptide text is derived from it. Where no end group is shown, it is not given here."}
{"compound": "Ac-RFPHFWV-OH [hOmi_c2, R F P H F W V]", "values": [{"measurement": "fold lower affinity (IC50 increase) relative to SWTMFWV (hOmi_c1)", "result": 50, "unit": "fold"}]}
{"compound": "NC(=O)[C@H](Cc1c[nH]c2ccccc12)NC(=O)[C@H](Cc1c[nH]c2ccccc12)NC(=O)[C@H](Cc1c[nH]cn1)NC(=O)[C@@H](N)CO", "note": "[hOmi_n1_t5, S H W W] (H-SHWW-NH2)", "values": [{"measurement": "fold lower affinity relative to SHWWGGWLG (hOmi_n1)", "setting": "truncation series of SHWWGGWLG, C terminus amidated", "result": 3, "unit": "fold"}]}
{"compound": "Ac-SWTMFAV [hOmi_c1_A2, S W T M F A V]", "values": [{"measurement": "IC50", "setting": "unit printed in the cell (mM), read-out: IC50", "result": "> 1", "unit": "mM"}]}
{"compound": "S H W W G (SHWWG) [hOmi_n1_t4]", "values": [{"measurement": "IC50 (μM)", "setting": "[1]", "result": "NDI"}]}
{"compound": "NC(=O)[C@H](Cc1c[nH]c2ccccc12)NC(=O)[C@H](Cc1c[nH]c2ccccc12)NC(=O)[C@@H](N)Cc1c[nH]cn1", "note": "[hOmi_n1_t9, H W W] (H-His-Trp-Trp-NH2)", "values": [{"measurement": "IC50", "setting": "[2]", "result": "0.108 ± 0.0322", "unit": "mM"}, {"measurement": "effect on binding to Omi PDZ, in words (SHWWGGWLG series)", "setting": "truncations of SHWWGGWLG (libN), C terminus amidated", "result": "comparable affinity as tetrapeptide SHWW"}]}
{"compound": "WGGWLG [hOmi_n1_t8, W G G W L G]", "values": [{"measurement": "IC50 (μM)", "setting": "[1]", "result": "NDI"}]}
{"compound": "Ac-GQYYFV-OH [PDZ-Opt, G Q Y Y F V, reference compound]", "values": [{"measurement": "fold lower affinity (IC50 increase) relative to SWTMFWV (hOmi_c1)", "result": 5, "unit": "fold"}, {"measurement": "IC50", "setting": "[2]", "result": "0.0176 ± 0.0056", "unit": "mM"}]}
{"compound": "WWGGWLG [hOmi_n1_t7, W W G G W L G]", "values": [{"measurement": "IC50 (μM)", "setting": "[1]", "result": "NDI"}]}
{"compound": "SHWWGG [hOmi_n1_t3, S H W W G G]", "values": [{"measurement": "IC50 (μM)", "setting": "[1]", "result": "NDI"}]}
{"compound": "Ac-MDIELVMI [Mxi2, M D I E L V M I, reference compound]", "values": [{"measurement": "IC50", "setting": "[3]", "result": "> 0.5", "unit": "mM"}]}
{"compound": "CC(=O)N[C@@H](Cc1ccccc1)C(=O)N[C@@H](Cc1c[nH]c2ccccc12)C(=O)N[C@H](C(=O)O)C(C)C", "note": "[hOmi_c1_t4, F W V] (Ac-Phe-Trp-Val-OH)", "values": [{"measurement": "fold lower affinity (IC50 increase) relative to SWTMFWV (hOmi_c1)", "result": "> 30", "unit": "fold"}, {"measurement": "IC50", "setting": "[2]", "result": "0.118 ± 0.0321", "unit": "mM"}]}
{"compound": "Ac-SWTMFWV [hOmi_c1, S W T M F W V]", "values": [{"measurement": "IC50", "setting": "[3]", "result": 0.0033, "unit": "mM"}]}
{"compound": "SWTMFWV [hOmi_c3, S W T M F W V-CONH2]", "values": [{"measurement": "IC50 (μM)", "setting": "[1]", "result": "NDI"}]}
{"compound": "SHWAGGWL [hOmi_n1_A2, S H W A G G W L]", "values": [{"measurement": "IC50 (μM)", "setting": "[1]", "result": "NDI"}]}
{"compound": "SHAWGGWL [hOmi_n1_A3, S H A W G G W L]", "values": [{"measurement": "IC50 (μM)", "setting": "[1]", "result": "NDI"}]}
{"compound": "H-SHWWGGWL-NH2 [hOmi_n1_t1, S H W W G G W L]", "values": [{"measurement": "IC50", "setting": "[2]", "result": "0.0176 ± 0.0039", "unit": "mM"}]}
